Experimental data taken from patent publication EP0400785A2, “Ultraviolet curable phenyl and acrylamide group-containing silicone compositions” (DOW CORNING CORPORATION, priority 1989, dated 1990).

Assays:
Format in all cases: physicochemical
[1] = Autoclave stability of cured composition at 121°C (durometer); conditions: in Acrylamide-polymer B; after 20 hours in an autoclave at 12 1°C and 15 psi
Source text: (§1) Compositions were made from Acrylamide-polymer B and various compounds which might be considered useful as photosensitization systems. These included P-1 = 2 hydroxy-2-methylphenylpropan-1-one (Darocur^TM 1173) P-2 = diethoxyacetophenone P-3 = (1-hydroxycyclohexyl)phenylmethanone (Irgacure^TM 184) P-4 = benzophenone P-5 = a 50/50 weight mixture of P-1 and diisopropylaminoethanol. Each of the photosensitization systems were used in an amount of one weight percent except P-5 which was used in an amount of two weight percent. The weight percentage was based on the weight of Acrylamide-blend B. Each of the compositions were cured for a defined period of time by exposure to ultraviolet radiation on the LCU described in Example 2, set for 3 seconds per pass which measured about 400 mJ/cm² using a Light Bug. The hardness of the cured composition was measured by using equipment manufactured by Instrument MFG Co. on the Shore OO durometer scale using a 0.25 inch thick section of the cured material. The durometer was determined initially, after heat aging for 20 hours at 150°C. in an oven and after 20 hours in an autoclave at 12 1°C. and 15 psi pressure.
(§2) A gel composition was prepared by mixing 98 parts of Acrylamide-blend E, 1 part of (1-hydroxycyclohexyl)phenylmethanone and 1 part of a heat stability additive. Sodium and potassium contents were determined on uncured samples of the gel composition by using flame photometry of acid ashed gel composition after removal of silica by treatment with hydrofluoric acid. The amount of sodium and potassium were each less than 2 ppm. […] The irradiation dose was determined by using an IL 390 Light Bug manufactured by International Light of (Newburyport, Mass.). […] As determined by ASTM-D150, the dielectric constant at 100 Hz was 3.0 and at 100,000 Hz was 3.0. As determined by ASTM-D150, the dissipation factor at 100 Hz was 0.006 and at 100,000 Hz was 0.002. The glass transition temperature was -113°C. and there was no melting transition temperature as determined by differential scanning calorimetry. The thermal stability was determined by placing a sample of the cured gel composition in a forced air oven at 150°C. […] The autoclave stability was determined by placing a sample of cured gel composition in an autoclave at 121°C. with a pressure of 2.1 kg/cm².
(§3) A composition was prepared by blending 67 parts of Acrylamide-polymer D, 25 parts of 1,4 -butanediol diacrylate, 3 parts of 1-hydroxy-2-methyl-1-phenylpropan-1-one, 5 parts of an adhesion additive, 100 ppm of phenothiazine and 100 ppm of the monomethyl ether of hydroquinone. […] The ionic purity was determined and there was less than 2 ppm of sodium and less than 2 ppm potassium. […]

[2] = Durometer hardness of cured composition (Shore scales); conditions: in Acrylamide-polymer B; 0.25 inch thick section of cured material
Source text: as §1, §2, §3

[3] = Heat aging / thermal stability of cured composition in oven at 150°C (durometer); conditions: in Acrylamide-polymer B; after 20 hours at 150°C in an oven
Source text: as §1, §2, §3

Row | Compound | DUROMETER AUTOCLAVE [1] | DUROMETER INITIAL [2] | DUROMETER HEAT AGED [3]
1 | CC(C)(O)C(=O)c1ccccc1 [P-1, 2 hydroxy-2-methylphenylpropan-1-one] | 39 Shore OO | 45 Shore OO | 36 Shore OO
2 | CCOC(OCC)C(=O)c1ccccc1 [P-2, diethoxyacetophenone] | 47 Shore OO | 42 Shore OO | 30 Shore OO
3 | O=C(c1ccccc1)C1(O)CCCCC1 [P-3, (1-hydroxycyclohexyl)phenylmethanone] | 40 Shore OO | 41 Shore OO | 42 Shore OO
4 | O=C(c1ccccc1)c1ccccc1 [P-4, benzophenone] | 44 Shore OO | 44 Shore OO | 43 Shore OO
